Results on ten molecules are retold here after patent US8216782B2, “PTTG1 as a biomarker for cancer treatment” (Cedars-Sinai Medical Center, priority 2008, dated 2012).

For data set [1], the system named is HCT116 PTTG1−/− cells. Description: BrdU incorporation assay. In kind it is cell-based. As to the method: The BrdU incorporation assay was carried out using a commercial kit. Briefly, culture cells in 96-well microplates in a final volume of 100 ul culture medium per well. After treatment, add 10 ul BrdU labeling solution per well (final concentration: 10 uM BrdU) and incubate for 2-18 h at 37° C. Carefully remove the culture medium and wash cells twice with 250 ul wash medium containing 10% serum per well. Cells fixed and treated with nucleases working solution for 30 min at 37° C. The incorporated BrdU is detected using anti-BrdU-POD, Fab fragments and peroxidase substrate ABTS. The absorbances of the samples are measured at 405 nm against the background control, using a Victor 3 multiwell plate reader.
On the technique in general: Incorporation of labelled thymidine or its analogues reports DNA synthesis.

Data set [2] deals with Aurora Kinase A. Particulars: Gadea and Ruderman, 2005; cited from earlier work.
The test system of data set [3] is HCT116 PTTG1−/− cells. In words: WST-1 cell proliferation assay. It is filed as cell-based. The settings on record: for effect on the WT versus PTTG1−/− difference in response to doxorubicin: 3 μM inhibitor pre-incubation or siRNA, 0.63 μM doxorubicin; for sensitivity of PTTG1−/− cell growth versus WT (WST-1): PTTG1−/− vs WT HCT116 cells. As to the method: (§1) FIG. 4 depicts that PTTG1 regulates cell response to Aurora Kinase inhibition, in accordance with an embodiment of the present invention. (A) PTTG1^−/− cell proliferation was attenuated in response to Aurora Kinase A siRNA (mean±S.D., n=3. P<0.05 vs WT). Cells were seeded into 96-well plates, cultured overnight, and then transfected with siRNAs (100 nM). After 72 hours, premixed WST-1 cell proliferation reagent (10 ul) was added to each well. Cells were incubated for a further four hours and shaken thoroughly for one minute before measurement. […] Cells were seeded into 96-well plates, cultured overnight, and then treated with drug as indicated for 48 hours. Viable cells were measured using Premixed WST-1 cell proliferation reagent. (C) Anchorage-dependent colony formation assay was performed as described herein. […] (mean±S.D., n=3. P<0.05 vs WT) (D) Western blot showing that over-expressed PTTG1 rescued PTTG1^−/− sensitivity to Aurora Kinase inhibitor III (12.5 uM) (mean±S.D., n=3. P>0.05 vs WT); PTTG1 knock-down enhanced WT cell sensitivity to Aurora Kinase inhibitor III (12.5 uM) (mean±S.D., n=3. P>0.05 vs PTTG1^−/−). PTTG1^−/−=PTTG1-null or KO cells.
(§2) Cell proliferation was evaluated using WST-1 cell proliferation reagent (obtained from Clontech Laboratories, Inc.; Mountain View, Calif.). Briefly, 90 μl cells were seeded into 96-well plates and cultured overnight, treated with drugs for 48 hours, and 10 μl premixed WST-1 cell proliferation reagent added. Cells were incubated for a further four hours, shaken and absorbance measured at 450 nm using a Victor 3 multiwell plate reader (obtained from PerkinElmer, Inc.; Waltham, Mass.). Cell viability rate was calculated for each well as A450 treated cells/A450 control cells×100% (A450: OD value at 450 nm).
(Formazan colour is commonly taken as a measure of viable cells.)

In the next data set the test system is HCT116 WT cells. In words: WST-1 cell proliferation assay. In kind it is cell-based. As to the method: as §1, §2
For data set [4], the system named is HCT116 PTTG1−/− cells. In words: Anchorage-dependent colony formation assay. Particulars: PTTG1−/− vs WT HCT116 cells. In kind it is cell-based. As to the method:
Briefly, 20,000 cells were plated in a six-well culture dish, allowed to attach overnight and treated with depicted drug concentrations. Cells were cultured in standard culture medium containing indicated treatments for twelve days and medium re-freshened every three days. Colonies were stained with 0.5% crystal violet in methanol/acetic acid (3:1) and those composed of >50 cells were counted.

In data set [5] the test system is Aurora Kinase A. In words: Western blot of siRNA knock down. It is filed as cell-based. Particulars: WT and PTTG1−/− cells. As to the method: Protein extracts were resolved by Nupage 4-12% Bis-Tris Gel (obtained from Invitrogen). Samples were electro-blotted onto PVDF membrane (obtained from Invitrogen), and membranes blocked and incubated with primary antibody. Donkey anti-rabbit- or anti-mouse (obtained from GE Healthcare; NJ) antibodies were conjugated to horseradish […] to reveal immunocomplexes by enhanced chemiluminescence (obtained from Thermo Scientific Pierce Protein Research Products).
Aurora Kinase A siRNA (AM51331, Sense: Described herein as SEQ. ID. NO.: 5; Antisense: Described herein as SEQ. ID. NO.: 6) and PTTG1 siRNA (16706, Sense: Described herein as SEQ. ID. NO.: 7; Antisense: Described herein as SEQ. ID. NO.: 8) were purchased from Ambion, Inc. (TX). Transfections were carried out with lipofectamine 2000 according to protocol.

The next data set addresses T1, ribosomal protein S10 (Homo sapiens, UniProt P46783).
T1 construct: purchased Invitrogen Protoarray nc-v3
Description: Protein microarray screening (Protoarray). It is filed as binding. The settings on record: biotinylated PTTG1 probe. As to the method:
(§3) FIG. 1 depicts that PTTG1 interacts with Aurora Kinase A, in accordance with an embodiment of the present invention. (A) PTTG1 was biotin-labeled and incubated with the protein microarray. Attached biotinylated PTTG1 was probed with Streptavidin-Alexa Fluor 647 conjugate. […] (B) Aurora Kinase A antibody was used to co-immunoprecipitate PTTG1, and PTTG1 antibody used to co-immunoprecipitate Aurora Kinase A respectively.
(§4) The human Protoarray nc3.0 study was performed as described by the manufacturer (obtained from Invitrogen Corporation; Carlsbad, Calif.). PTTG1 protein was biotinylated using biotin-XX sulfosuccinimidyl ester, purified by gel filtration, and assessed by Western blot. Appropriate protein aliquots were used to probe a protein microarray (Protoarray nc-v3; obtained from Invitrogen) and attached biotinylate PTTG1 was probed with Streptavidin-Alexa Fluor 647 conjugate. Arrays were scanned by GenePix 4000B (obtained from Molecular Devices Corporation; Sunnyvale, Calif.), and images analyzed using ProtoArray Prospector (Invitrogen).

Data set [6] concerns the target T2, Aurora Kinase A (Homo sapiens, UniProt O14965).
T2 sequence (O14965 1-403): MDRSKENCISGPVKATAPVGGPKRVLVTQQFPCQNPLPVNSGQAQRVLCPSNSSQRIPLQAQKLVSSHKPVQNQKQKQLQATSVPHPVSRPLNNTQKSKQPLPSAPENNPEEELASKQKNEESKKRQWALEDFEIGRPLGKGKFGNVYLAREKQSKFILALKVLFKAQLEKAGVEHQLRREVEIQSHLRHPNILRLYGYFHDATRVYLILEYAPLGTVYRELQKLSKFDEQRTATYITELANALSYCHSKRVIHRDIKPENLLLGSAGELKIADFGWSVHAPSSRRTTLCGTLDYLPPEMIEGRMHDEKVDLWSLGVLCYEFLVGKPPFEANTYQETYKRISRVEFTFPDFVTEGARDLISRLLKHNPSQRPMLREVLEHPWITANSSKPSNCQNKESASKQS
In words: In vitro kinase activity assay (histone H3 Ser10 phosphorylation). It is filed as biochemical. The arrangement: purchased Cell Signaling. The settings on record: PTTG1 0.5, 1, 2 μg. The source says:
FIG. 3 depicts that PTTG1 attenuates Aurora Kinase A function, in accordance with an embodiment of the present invention. (A) Over-expressed PTTG1 caused abnormal spindle formation as evidenced by unevenly distributed PTTG1-GFP and Aurora Kinase A (white arrows). (B) Western blot showing that over-expressed PTTG1 suppressed Aurora Kinase A T288 auto-phosphorylation and histone H3 Ser10 phosphorylation in HCT116 cells compared to controls. (C) Over-expressed PTTG1 repressed histone H3 Seri 0 phosphorylation as shown by immunofluorescence (white arrows). Scale bar=5 μm. (D) Degradation of mitotic proteins. HCT116 cells were synchronized with 400 ng/ml nocodazole for twelve hours and mitotic cells collected by shake-off, washed and cultured in fresh medium at 37° C. to allow progression of G2/M, and cells harvested at the indicated time points. […] (E) In vitro kinase assay. Aurora Kinase A, histone H3 and increasing PTTG1 or GST-His levels (0.5, 1, 2 μg) were brought to a 30 μl volume reaction system as described herein. After incubations at 37° C. for 20 minutes, reactions were halted and analyzed by Western blotting using histone H3 ser10 antibody. […]
Assays were performed using a modified Aurora kinase A assay kit obtained from Cell Signaling. […] Proteins were separated by standard SDS-PAGE and analyzed by Western blotting.

The target of data set [7] is T2, Aurora Kinase A. Description: Protein microarray screening (Protoarray). The arrangement: purchased Invitrogen Protoarray nc-v3. In kind it is binding. The settings on record: biotinylated PTTG1 probe. As to the method:
as §3, §4

Turning to `CC(=O)N[C@@H](CS)C(=O)O` [N-acetyl cysteine (NAC), N-acetyl cysteine], in the data set with HCT116 PTTG1−/− cells [1], the “effect of ROS quencher on PTTG1−/− cell sensitivity to ROS-generating agents” value is “rescue PTTG1−/− cells sensitivity”. Take `COc1cc2c(Nc3ccc(NC(=O)c4ccccc4)cc3)ncnc2cc1OCCCN1CCOCC1` [ZM 447439]: the “effect on chromosome condensation and spindle” value in the data set with Aurora Kinase A [2] is “retards progression of chromosome condensation, leading to a disorganized spindle”. In the case of `OO` [H2O2], in the data set on HCT116 PTTG1−/− cells [1], the “sensitivity of PTTG1−/− cells to ROS-generating agents” value is listed as “enhanced sensitivity”. Turning to `O=C(Nc1cccc(Nc2nccc(Nc3cccc(C(F)(F)F)c3)n2)c1)C1CC1` [Aurora Kinase Inhibitor III, Cyclopropanecarboxylic acid-(3-(4-(3-trifluoromethyl-phenylamino)-pyrimidin-2-ylamino)-phenyl)-amide], in the data set with HCT116 PTTG1−/− cells [3], the “effect on the WT versus PTTG1−/− difference in response to doxorubicin” value is reported as “abolished the different response” and the “sensitivity of PTTG1−/− cell growth versus WT (WST-1)” value is “more sensitive”. In addition, the viability at 12.5 µM in the data set with HCT116 PTTG1−/− cells [3] (Homo sapiens, HCT-116, PTTG1-null HCT116 cells, 12.5 uM for 48 h, read-out: cells remaining viable) is 56%. Moreover, the viability at 12.5 µM with HCT116 WT cells (Homo sapiens, HCT-116, WT cells, 12.5 uM for 48 h, read-out: cells remaining viable) was found to be 73%. Further, the “sensitivity of PTTG1−/− cells versus WT (colony formation)” value in the data set with HCT116 PTTG1−/− cells [4] is recorded as “more sensitive”.

As for “PTTG1 siRNA: siRNA 16706, SEQ. ID. NO.: 7 and 8, purchased from Ambion (chain 1 GUCUGUAAAGACCAAGGGA; chain 2 UCCCUUGGUCUUUACAGAC; listed as RNA, chemistry not given here; listed as Homo sapiens)”, the “effect of PTTG1 knock down on sensitivity to Aurora Kinase inhibitor III” value with HCT116 WT cells (WT HCT116 cells, inhibitor III 12.5 uM) is recorded as “increased HCT116 cell sensitivity”. With `COc1cc2ncnc(Nc3ccc(NC(=O)c4ccccc4)cc3)c2cc1OC` [Aurora Kinase Inhibitor II, 4-(4′-Benzamidoanilino)-6,7-dimethoxyquinazoline], in the data set with HCT116 PTTG1−/− cells [3], the “sensitivity of PTTG1−/− cell growth versus WT (WST-1)” value was “more susceptible than WT cells”. Consider `Nc1nc(Nc2ccc(S(N)(=O)=O)cc2)nn1C(=O)c1c(F)cccc1F` [Aurora Kinase/CDK inhibitor, 4-(5-Amino-1-(2,6-difluorobenzoyl)-1H-[1,2,4]triazol-3-ylamino)-benzenesulfonamide], for which, in the data set on HCT116 PTTG1−/− cells [3], the “sensitivity of PTTG1−/− cell growth versus WT (WST-1)” value was “more susceptible than WT cells”. For `S=C=NCCc1ccccc1` [PEITC, phenethyl isothiocyanate], in the data set with HCT116 PTTG1−/− cells [1], the “sensitivity of PTTG1−/− cells to ROS-generating agents” value is reported as “enhanced sensitivity”.

Turning to “Aurora Kinase A siRNA: siRNA AM51331, SEQ. ID. NO.: 5 and 6, purchased from Ambion (chain 1 GGCAACCAGUGUACCUCAU; chain 2 AUGAGGUACACUGGUUGCC; chemistry not given here; listed as Homo sapiens)”, in the data set with HCT116 PTTG1−/− cells [3], the “effect on the WT versus PTTG1−/− difference in response to doxorubicin” value was “abolished the differences” and the “sensitivity of PTTG1−/− cell growth versus WT (WST-1)” value is on record as “attenuated”. The “Aurora Kinase A expression” value in the data set on Aurora Kinase A [5] is on record as “efficiently knocked down Aurora Kinase A expression”.

B1: PTTG1: pituitary tumor transforming gene protein (securin); His-PTTG1 expressed in insect cells, biotinylated for the array (protein, listed as Homo sapiens)
chain: MATLIYVDKENGEPGTRVVAKDGLKLGSGPSIKALDGRSQVSTPRFGKTFDAPPALPKATRKALGTVNRATEKSVKTKGPLKQKQPSFSAKKMTEKTVKAKSSVPASDDAYPEIEKFFPFNPLDFESFDLPEEHQIAHLPLSGVPLMILDEERELEKLFQLGPPSPVKMPSPPWESNLLQSPSSILSTLDVELPPVCCDIDI
modifications: His tag, biotinylated
notes: pituitary tumor transforming gene protein (securin); His-PTTG1 expressed in insect cells, biotinylated for the array
With B1, the Z-score of interaction with ribosomal protein S10 was determined as 3.34; with Aurora Kinase A [7], 4.90. Besides, the “Aurora Kinase A phosphorylation of histone H3” value with Aurora Kinase A [6] is recorded as “dose-dependently inhibits”.
